pIC50: −log10 of the molar value.
Columns and labels:
[1] = tested on: maximal electroshock-induced convulsions; experiment: protection against maximal electroshock-induced convulsions in mice; format: in vivo
Description: The agents of the invention provide long-lasting protection against maximal electroshock-induced convulsions in mice at doses of about 1 to 100 mg/kg p.o. and about 0.32 to 32 mg/kg i.p. [cf. E. A. Swinyard, J. Am. Pharm. Assoc. Scient. Ed. 38, 201 (1949) and J. Pharmacol. Exptl. Therap. 106, 319 (1952)].
(§1) For all these indications the preferred compound is (R)-1,2,3,4-tetrahydro-8-methoxy-N,N-dimethyl-5-[4-(trifluoromethyl)phenyl]-2-naphthaleneamine, which is the compound of example 21. It has for example been determined that in the above mentioned electroshock model, this compound provides protection against maximal electroshock-induced convulsions with a threshold dose of 10 mg/kg p.o. for periods up to 8 hours post-administration.

[2] = tested on: ischemia-induced neuronal damage (infarct size); experiment: middle cerebral artery (MCA) occlusion model in rats; format: in vivo
Description: Furthermore, the agents of the invention reduce ischemia-induced neuronal damage and ensuing symptoms in the middle cerebral artery (MCA) occlusion model in rats at a dosage of 1-30 mg/kg i.p, i.v. and p.o. [cf. A. Tamura et al., J. Cereb. Blood Flow Metabol. 1, 53-60 (1981)), A. Sauter, M. Rudin, Stroke 17, 1228-1234 (1986)].
as §1

[3] = target: veratridine-sensitive sodium channel; experiment: binding to the veratridine-sensitive sodium channel; details: read-out: IC50, affinity for the veratridine binding site
Description: (§2) The agents of the invention display binding to the veratridine-sensitive sodium channel with IC50 S of from about 0.1 to about 100 μM. For the binding procedure see for example J. B. Brown, Journal of Neuroscience 6, 2064-2070 (1986). They block veratridine-induced glutamate release in rat hippocampal slice preparations at concentrations of about 0.1-1 μM.

[4] = tested on: veratridine-induced glutamate release in rat hippocampal slice preparations; experiment: veratridine-induced glutamate release in rat hippocampal slice preparations; format: cell-based; details: for pIC50: Rattus norvegicus, read-out: IC50, block of veratridine-induced glutamate release
Description: as §2
The experiment is performed according to a modification of M. J. Leach et al. in Epilepsia 27, 490-497 (1986) and Stroke 24, 1063-1067 (1993), using exogenous glutamate.

[5] = 10 mg/kg i.p., immediately after occlusion

COc1ccc(-c2ccc(C(F)(F)F)cc2)c2c1C[C@H](N(C)C)CC2 [Example 21, (R)-1,2,3,4-tetrahydro-8-methoxy-N,N-dimethyl-5-[4-(trifluoromethyl)phenyl]-2-naphthaleneamine]
minimal effective dose ([1]; Mus musculus, po, read-out: threshold dose for protection against maximal electroshock-induced convulsions): 10 mg/kg
period of protection against maximal electroshock-induced convulsions post-administration ([1]; p.o., threshold dose 10 mg/kg): up to 8 hours
infarct size reduction ([2]; 3.2 mg/kg i.p. immediately after occlusion): 19%
infarct size reduction [2, 5]: 43%
infarct size reduction ([2]; 32 mg/kg i.p. immediately after occlusion): 53%
pIC50 [3]: 6.90
pIC50 [4]: 6.30
potency relative to Lifarizine in the veratridine-induced glutamate release test ([4]; compared with Lifarizine): about equipotent to Lifarizine

Nc1nnc(-c2cccc(Cl)c2Cl)c(N)n1 [Lamotrigine, reference compound]
pIC50 [4]: 4.70

Cc1ccc(-c2nc(C)c(CN3CCN(C(c4ccccc4)c4ccccc4)CC3)[nH]2)cc1 [Lifarizine, reference compound]
infarct size reduction [2, 5]: 25%

Nc1nc2ccc(OC(F)(F)F)cc2s1 [Riluzole, reference compound]
pIC50 [4]: 5.30

From patent US6169116A, “Amino-tetralines, pharmaceutical compositions containing them and their pharmaceutical uses” (Novartis AG, priority 1995, dated 2001)
